Test results published in the NIST ThermoML archive (doi:10.1021/je034048e).

Test: molar heat capacity at constant pressure
Details: 101.33 kPa

CCCCCCCC/C=C/CCCCCCCC(=O)OCC(COC(=O)CCCCCCC/C=C/CCCCCCCC)OC(=O)CCCCCCC/C=C/CCCCCCCC [trielaidin]
Crystal
Details | molar heat capacity at constant pressure [J/K/mol]
158.51 K | 861.53
161.21 K | 871.27
163.89 K | 883.66
166.55 K | 893.4
169.18 K | 904.91
171.79 K | 914.65
174.38 K | 927.05
176.95 K | 936.79
179.5 K | 947.41
182.03 K | 958.04
184.54 K | 970.43
187.03 K | 978.4
189.51 K | 989.03
191.97 K | 998.77
194.42 K | 1008.5
196.84 K | 1020
199.25 K | 1028.9
201.65 K | 1037.7
206.39 K | 1058.1
208.74 K | 1067.8
211.08 K | 1077.6
213.41 K | 1087.3
215.72 K | 1097.9
218.01 K | 1108.6
220.3 K | 1117.4
222.57 K | 1127.2
224.83 K | 1137.8
227.07 K | 1149.3
229.31 K | 1160.8
231.53 K | 1169.7
233.74 K | 1180.3
235.94 K | 1190.9
238.13 K | 1201.5
240.31 K | 1212.2
242.48 K | 1222.8
244.64 K | 1235.2
246.79 K | 1245.8
248.93 K | 1256.4
251.06 K | 1268.8
253.19 K | 1279.4
255.3 K | 1292.7
257.41 K | 1305.1
259.5 K | 1320.2
261.59 K | 1332.6
263.67 K | 1345.9
265.75 K | 1360.9
267.81 K | 1374.2
269.86 K | 1389.2
271.91 K | 1403.4
273.95 K | 1419.3
275.98 K | 1437.9
278 K | 1454.8
280.02 K | 1471.6
282.03 K | 1489.3
284.04 K | 1509.7
288.03 K | 1543.3
290.02 K | 1560.1
292 K | 1580.5
293.98 K | 1601.7
295.95 K | 1622.1
297.92 K | 1646.9
299.88 K | 1669.9
301.84 K | 1708.9
303.79 K | 1742.5
305.74 K | 1795.7
307.67 K | 1890.4
309.58 K | 2118.8

Small (less than 1 g) adiabatic calorimetry
Details | molar heat capacity at constant pressure [J/K/mol]
158.69 K, Metastable crystal | 917.31
160 K, Crystal | 867.72
160 K, Metastable crystal | 920.85
161.6 K, Metastable crystal | 932.36
164.51 K, Metastable crystal | 946.53
167.42 K, Metastable crystal | 962.46
170 K, Crystal | 912
170 K, Metastable crystal | 973.98
170.34 K, Metastable crystal | 977.52
176.16 K, Metastable crystal | 1009.4
179.08 K, Metastable crystal | 1022.7
180 K, Crystal | 947.41
180 K, Metastable crystal | 1027.1
181.99 K, Metastable crystal | 1043
184.9 K, Metastable crystal | 1066.1
187.79 K, Metastable crystal | 1080.2
190 K, Crystal | 991.68
190 K, Metastable crystal | 1097.9
190.66 K, Metastable crystal | 1104.1
193.5 K, Metastable crystal | 1125.4
196.32 K, Metastable crystal | 1147.5
199.11 K, Metastable crystal | 1169.7
200 K, Crystal | 1036
200 K, Metastable crystal | 1177.6
201.89 K, Metastable crystal | 1191.8
204.65 K, Metastable crystal | 1213.9
207.38 K, Metastable crystal | 1237.8
210 K, Crystal | 1071.4
210 K, Metastable crystal | 1257.3
210.1 K, Metastable crystal | 1260
212.79 K, Metastable crystal | 1280.3
215.47 K, Metastable crystal | 1303.4
218.13 K, Metastable crystal | 1322.8
220 K, Crystal | 1115.6
220 K, Metastable crystal | 1337
220.78 K, Metastable crystal | 1343.2
223.41 K, Metastable crystal | 1362.7
226.02 K, Metastable crystal | 1384.8
228.62 K, Metastable crystal | 1405.2
230 K, Crystal | 1159.9
230 K, Metastable crystal | 1416.7
231.2 K, Metastable crystal | 1423.8
233.77 K, Metastable crystal | 1443.3
236.32 K, Metastable crystal | 1463.6
238.87 K, Metastable crystal | 1484
240 K, Crystal | 1213
240 K, Metastable crystal | 1496.4
241.4 K, Metastable crystal | 1503.5
243.91 K, Metastable crystal | 1523.8
246.41 K, Metastable crystal | 1545.1
248.9 K, Metastable crystal | 1565.4
250 K, Crystal | 1266.2
250 K, Metastable crystal | 1576.1
251.38 K, Metastable crystal | 1586.7
253.84 K, Metastable crystal | 1607.9
256.3 K, Metastable crystal | 1629.2
258.74 K, Metastable crystal | 1653.1
260 K, Crystal | 1319.3
260 K, Metastable crystal | 1664.6
261.18 K, Metastable crystal | 1675.2
263.6 K, Metastable crystal | 1697.4
266.01 K, Metastable crystal | 1717.7
268.41 K, Metastable crystal | 1732.8
270 K, Crystal | 1390.1
270 K, Metastable crystal | 1744.3
270.81 K, Metastable crystal | 1742.5
273.2 K, Metastable crystal | 1738.1
280 K, Crystal | 1469.8
280 K, Metastable crystal | 1815.1
288 K, Crystal | 1549.5
288 K, Metastable crystal | 1886
290 K, Crystal | 1558.4
298.15 K, Crystal | 1646.9
300 K, Crystal | 1673.5
310 K, Crystal | 1762
314.83 K, Crystal | 1806.3
314.83 K, Liquid | 1877.1
317.71 K, Liquid | 1884.2
318.99 K, Liquid | 1886.9
320 K, Liquid | 1894.8
320.03 K, Liquid | 1891.3
321 K, Liquid | 1895.7
322.34 K, Liquid | 1893.9
323.01 K, Liquid | 1896.6
324.66 K, Liquid | 1901.9
325.03 K, Liquid | 1902.8
326.98 K, Liquid | 1907.2
327.05 K, Liquid | 1906.3
329.07 K, Liquid | 1911.6
329.29 K, Liquid | 1913.4
330 K, Liquid | 1912.5
331.09 K, Liquid | 1916.1
331.61 K, Liquid | 1918.7
333.11 K, Liquid | 1918.7
333.92 K, Liquid | 1922.3
335.13 K, Liquid | 1922.3
336.24 K, Liquid | 1926.7
337.15 K, Liquid | 1926.7
338.55 K, Liquid | 1932.9
339.17 K, Liquid | 1933.8
340.87 K, Liquid | 1940.9
343.19 K, Liquid | 1946.2
345.51 K, Liquid | 1950.6
347.83 K, Liquid | 1954.1
350.15 K, Liquid | 1963
